Key:
HER2 = target: T1, HER2 (Homo sapiens, UniProt P04626); assay: Inhibitory effect (in vitro) on HER2 phosphorylation activity; format: biochemical; conditions: recombinant human HER2, ATP 5 μM, 25° C. 30 minutes
T1 construct: purchased Carna Biosciences, Inc
Description: In order to determine conditions for a method of measuring the in vitro inhibitory activity of a compound against HER2 phosphorylation activity, based on the report regarding a HER2 kinase reaction using, as a substrate, a peptide having the same sequence (5-FAM-[…]-CONH2) as that of ProfilerPro Peptide 22 of PerkinElmer (Xie H et al., PLoS One. 2011; 6(7): e21487), ProfilerPro Peptide 22 was used as a substrate. A purified recombinant human HER2 protein used in the present test was purchased from Carna Biosciences, Inc. Upon the measurement of the inhibitory activity of the compound, first, the compound of the present invention was diluted stepwise with dimethyl sulfoxide (DMSO). […] To the reaction solution, EDTA was added to a final concentration of 30 mM, so as to terminate the reaction. Finally, using LabChip (registered trademark) EZ Reader II (PerkinElmer), an unphosphorylated substrate peptide (S) and a phosphorylated peptide (P) were separated and detected according to microchannel capillary electrophoresis.

[1] = target: HER2 exon 20 insertion mutant (HER2ex20insYVMA, A775_G776insYVMA) (Homo sapiens, UniProt P04626, DUP772-775); assay: Inhibitory action (in vitro) against HER2 exon 20 insertion mutant phosphorylation activity; format: biochemical; conditions: 30 min pre-incubation, ATP 200 μM, 25° C. 220 minutes
Sequence of HER2 exon 20 insertion mutant (HER2ex20insYVMA, A775_G776insYVMA) (P04626 with tags, fused parts or gaps DUP772-775): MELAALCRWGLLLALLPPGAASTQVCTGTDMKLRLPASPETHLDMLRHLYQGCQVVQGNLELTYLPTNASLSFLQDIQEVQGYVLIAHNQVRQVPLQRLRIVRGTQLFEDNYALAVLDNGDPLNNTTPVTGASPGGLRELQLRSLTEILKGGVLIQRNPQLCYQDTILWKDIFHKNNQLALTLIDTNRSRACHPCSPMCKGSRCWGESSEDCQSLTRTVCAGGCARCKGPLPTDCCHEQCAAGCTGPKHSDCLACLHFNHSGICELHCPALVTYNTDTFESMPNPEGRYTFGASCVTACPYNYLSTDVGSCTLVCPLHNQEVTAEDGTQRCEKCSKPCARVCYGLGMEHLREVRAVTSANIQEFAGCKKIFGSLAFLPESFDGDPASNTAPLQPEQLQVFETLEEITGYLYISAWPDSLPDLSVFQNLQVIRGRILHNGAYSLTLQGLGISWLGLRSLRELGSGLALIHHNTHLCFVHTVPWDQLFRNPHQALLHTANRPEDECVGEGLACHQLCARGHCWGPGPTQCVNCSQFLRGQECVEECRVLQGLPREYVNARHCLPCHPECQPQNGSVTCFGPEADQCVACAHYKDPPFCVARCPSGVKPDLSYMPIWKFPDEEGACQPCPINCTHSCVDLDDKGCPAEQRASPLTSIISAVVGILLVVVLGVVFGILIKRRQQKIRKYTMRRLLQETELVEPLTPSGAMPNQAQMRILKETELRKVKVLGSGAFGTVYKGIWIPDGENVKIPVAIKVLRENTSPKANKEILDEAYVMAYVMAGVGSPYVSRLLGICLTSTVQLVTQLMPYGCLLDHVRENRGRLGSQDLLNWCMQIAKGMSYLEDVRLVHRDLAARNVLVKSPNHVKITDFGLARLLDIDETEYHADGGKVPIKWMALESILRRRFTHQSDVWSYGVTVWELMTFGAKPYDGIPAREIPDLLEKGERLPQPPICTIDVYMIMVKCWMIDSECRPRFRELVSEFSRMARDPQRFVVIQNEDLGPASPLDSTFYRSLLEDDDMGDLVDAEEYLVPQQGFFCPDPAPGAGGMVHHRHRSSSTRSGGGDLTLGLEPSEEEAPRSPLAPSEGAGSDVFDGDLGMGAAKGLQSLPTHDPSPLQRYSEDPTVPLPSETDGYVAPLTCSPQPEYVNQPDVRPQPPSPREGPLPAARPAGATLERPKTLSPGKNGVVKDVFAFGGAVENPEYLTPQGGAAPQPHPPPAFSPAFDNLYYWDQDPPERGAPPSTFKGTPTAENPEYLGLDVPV
Description: In order to determine conditions for a method of measuring the in vitro inhibitory activity of a compound against HER2 exon 20 insertion mutant phosphorylation activity, as in the case of HER2, ProfilerPro Peptide 22 was used as a substrate. A purified recombinant human HER2 exon 20 insertion mutant (A775_G776insYVMA) protein is shown in SEQ ID NO: 7, and was purchased from SignalChem. Upon the measurement of the inhibitory activity of the compound, first, the compound of the present invention was diluted stepwise with dimethyl sulfoxide (DMSO). Subsequently, the HER2 exon 20 insertion mutant protein and the compound of the present invention in DMSO solution (final concentration of DMSO: 5%) were added into a buffer for the kinase reaction (13.5 mM Tris (pH 7.5), 2 mM dithiothreitol, and 0.009% Tween 20), and the obtained mixture was then pre-incubated at 25° C. for 30 minutes. Thereafter, the substrate peptide (final concentration: 1 μM), manganese chloride (final concentration: 25 mM), magnesium chloride (final concentration: 20 mM), and ATP (final concentration: 200 μM) were added into the reaction mixture, and the thus obtained mixture was then incubated at 25° C. for 220 minutes, so that the kinase reaction was carried out. To the reaction solution, EDTA was added to a final concentration of 30 mM, so as to terminate the reaction. Finally, using LabChip (registered trademark) EZ Reader II (PerkinElmer), an unphosphorylated substrate peptide (S) and a phosphorylated peptide (P) were separated and detected according to microchannel capillary electrophoresis.

SK-BR-3 cells = assay: Growth inhibitory activity against HER2 expressing cell line SK-BR-3; format: cell-based; conditions: Homo sapiens, SK-BR-3, 72 h; 3 days, CellTiter-Glo 2.0
Experimental: SK-BR-3 cells as a HER2 overexpressing human breast cancer cell line were suspended in a McCoy's 5a medium (manufactured by Life Technologies) supplemented with 10% fetal bovine serum. The cell suspension was seeded in each well of a 384-well flat-bottom microplate, and was then cultured in a 5% carbon dioxide gas-containing culture vessel at 37° C. for 1 day. Thereafter, the compound of the present invention was dissolved in DMSO, and the compound was diluted to 500 times the final concentration in DMSO. The compound in the DMSO solution was diluted with DMSO solution or the medium used in the suspension of the cells, and the obtained solution was then added to each well of the culture plate so that the final concentration of DMSO was 0.2%. The obtained mixture was further cultured in the 5% carbon dioxide gas-containing culture vessel at 37° C. for 3 days. After completion of the culture for 3 days in the presence of the compound, the cells were counted using CellTiter-Glo 2.0 (manufactured by Promega), and the growth inhibition percentage was then calculated according to the following equation. […] Growth inhibitory percentage (%)=(C−T)/(C)×100 T: Emission intensity from the well to which the test compound was added C: Emission intensity from the well to which the test compound was not added

Ba/F3-HER2insYVMA cells = Ba/F3-HER2insYVMA cells (Homo sapiens, UniProt P04626, DUP772-775, cells depend on it); assay: Growth inhibitory activity against HER2 exon 20 insertion mutant expressing cell line; format: cell-based, mouse; conditions: 3 days, CellTiter-Glo 2.0, read-out: HER2ex20insYVMA cell growth inhibitory activity IC50 value
Sequence of Ba/F3-HER2insYVMA cells (P04626 with tags, fused parts or gaps DUP772-775): as above
Experimental: Growth inhibitory activity against the HER2 exon 20 insertion mutant was measured using Ba/F3 cells that were a mouse B lymphocyte precursor cell line, into which a human HER2 exon 20 insertion mutant gene had been introduced. The Ba/F3 cells were maintained in an RPMI-1640 medium (Thermo Fisher Scientific) supplemented with 10% fetal bovine serum (FBS), 100 U/mL penicillin, 100 μg/mL streptomycin (Thermo Fisher Scientific) and 1 ng/mL mouse interleukin-3 (mIL-3) (CST).
Upon evaluation of cell growth inhibitory activity, the Ba/F3-HER2insYVMA cells were suspended in an RPMI-1640 medium supplemented with 10% FBS, 100 U/mL penicillin, and 100 μg/mL streptomycin. The cell suspension was seeded in each well of a 96-well flat-bottom microplate, and was then cultured in a 5% carbon dioxide gas-containing culture vessel at 37° C. for 1 day. The compound of the present invention was dissolved in DMSO, and was then diluted with DMSO or the medium used in the suspension of the cells. The obtained solution was then added to each well of the culture plate, so that the final concentration of DMSO became 0.2%. The obtained mixture was further cultured in the 5% carbon dioxide gas-containing culture vessel at 37° C. for 3 days. After completion of the culture for 3 days in the presence of the compound, the cells were counted using CellTiter-Glo 2.0 (manufactured by Promega), and the growth inhibition percentage was then calculated according to the following equation. […] Growth inhibitory percentage (%)=(C−T)/(C)×100 T: Emission intensity from the well to which the test compound was added C: Emission intensity from the well to which the test compound was not added

NCI-N87 cells = assay: Growth inhibitory activity against HER2 expressing cell line NCI-N87; format: cell-based; conditions: Homo sapiens, NCI-N87, 72 h; 3 days, CellTiter-Glo 2.0
Experimental: NCI-N87 cells as a HER2 overexpressing human stomach cancer cell line (American Type Culture Collection, Cat No. ATCC (registered trademark) CRL-5822) were suspended in an RPMI640 medium (Wako Pure Chemical Industries, Ltd.) supplemented with 10% fetal bovine serum. Subsequently, the cell suspension was seeded in each well of a 96-well flat-bottom microplate, and was then cultured in a 5% carbon dioxide gas-containing culture vessel at 37° C. for 1 day. Thereafter, the compound of the present invention was dissolved in DMSO, and the compound was diluted to 1000 times the final concentration in DMSO. The compound in the DMSO solution was diluted with the medium used in the suspension of the cells, and the obtained solution was then added to each well of the culture plate, so that the final concentration of DMSO became 0.1%. Regarding a control well, DMSO was diluted with the medium used in the suspension of the cells, and the obtained solution was then added to each well of the culture plate, so that the final concentration of DMSO became 0.1%. After addition of a drug solution, the obtained mixture was further cultured in the 5% carbon dioxide gas-containing culture vessel at 37° C. for 3 days. After completion of the culture for 3 days in the presence of the compound, the cells were counted using CellTiter-Glo 2.0 (manufactured by Promega) in accordance with the protocols recommended by Promega. The growth inhibition percentage was calculated according to the following equation. […] Growth inhibitory percentage (%)=(C−T)/(C)×100 T: Emission intensity from the well to which the test compound was added C: Emission intensity from the well to which the test compound was not added

[2] = Evaluation of oral absorbability; format: in vivo, BALB/cA mice; conditions: oral 50 mg/kg/day; for AUC(0-t): mouse, plasma, BALB/cA mice
Experimental: The compound of the present invention was suspended or dissolved in 0.5% HPMC aqueous solution and 0.1 N hydrochloric acid, and the obtained suspension or solution was orally administered to BALB/cA mice (CLEA Japan, Inc.) at a dose of 50 mg/kg/day. At 0.5, 1, 2, 4 and 6 hours after completion of the oral administration, blood was collected from the facial vein over time, so as to obtain plasma. The concentration of the compound in the obtained plasma was measured by LC-MS/MS, and the oral absorbability of the present compound was evaluated.

[3] = Evaluation of brain penetration properties; format: in vivo, BALB/cA mice; conditions: 0.5 hours after oral 50 mg/kg/day

T1 sequence (P04626 23-1255): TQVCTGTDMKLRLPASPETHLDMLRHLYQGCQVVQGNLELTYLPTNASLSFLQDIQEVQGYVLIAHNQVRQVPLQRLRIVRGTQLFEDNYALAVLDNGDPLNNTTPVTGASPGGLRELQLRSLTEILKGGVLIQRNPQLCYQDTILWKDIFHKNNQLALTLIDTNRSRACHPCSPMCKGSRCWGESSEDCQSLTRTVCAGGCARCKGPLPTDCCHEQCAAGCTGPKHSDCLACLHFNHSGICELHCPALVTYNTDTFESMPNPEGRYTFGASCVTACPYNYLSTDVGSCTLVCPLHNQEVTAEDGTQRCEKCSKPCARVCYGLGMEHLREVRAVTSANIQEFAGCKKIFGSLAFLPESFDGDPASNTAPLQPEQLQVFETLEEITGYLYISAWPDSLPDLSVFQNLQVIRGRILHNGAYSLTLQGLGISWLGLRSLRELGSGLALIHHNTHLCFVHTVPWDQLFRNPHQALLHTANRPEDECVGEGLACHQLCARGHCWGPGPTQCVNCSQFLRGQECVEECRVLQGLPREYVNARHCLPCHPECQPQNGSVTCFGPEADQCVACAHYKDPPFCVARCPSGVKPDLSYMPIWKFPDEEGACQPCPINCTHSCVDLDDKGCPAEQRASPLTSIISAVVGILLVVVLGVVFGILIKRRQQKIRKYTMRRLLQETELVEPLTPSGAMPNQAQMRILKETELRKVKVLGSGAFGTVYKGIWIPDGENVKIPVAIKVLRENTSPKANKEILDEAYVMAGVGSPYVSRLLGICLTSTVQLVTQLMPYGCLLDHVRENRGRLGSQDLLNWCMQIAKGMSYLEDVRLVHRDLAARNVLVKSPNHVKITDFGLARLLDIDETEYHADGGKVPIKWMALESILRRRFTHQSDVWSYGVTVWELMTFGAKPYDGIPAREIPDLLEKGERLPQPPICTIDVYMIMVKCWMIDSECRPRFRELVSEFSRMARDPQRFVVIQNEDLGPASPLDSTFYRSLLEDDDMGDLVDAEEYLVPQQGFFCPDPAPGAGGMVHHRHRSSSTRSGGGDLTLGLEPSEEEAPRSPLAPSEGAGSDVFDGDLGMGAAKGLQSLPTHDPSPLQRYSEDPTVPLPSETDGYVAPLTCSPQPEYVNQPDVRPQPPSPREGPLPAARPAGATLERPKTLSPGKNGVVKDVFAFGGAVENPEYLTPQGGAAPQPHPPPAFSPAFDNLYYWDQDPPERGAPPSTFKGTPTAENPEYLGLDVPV

Row | IC50 (HER2) [nM] | IC50 [1] [nM] | IC50 (SK-BR-3 cells) [nM] | GI50 (Ba/F3-HER2insYVMA cells) [nM] | AUC(0-t) [2] [µM·h] | oral absorbability attenuated versus the compound of the present invention ([2]; mice) | brain concentration attenuated versus the compound of the present invention ([3]; mice) | Kp at 0.5 h ([3]; mouse, brain, BALB/cA mice, read-out: Kp value (Compound concentration in brain/plasma)) | concentration at 0.5 h ([3]; mouse, plasma, BALB/cA mice, read-out: Compound concentration in plasma) [nM] | Structure (SMILES) | IC50 (NCI-N87 cells) [nM]
1 | 4.4 | 1.1 | 17 | 50 | 6.1 |  |  |  |  | C=CC(=O)N1C[C@H](n2c(C#CC3CC3)c(C(=O)N[C@H](C)c3ccccc3)c3c(N)ncnc32)C[C@@H]1COCC [Example 19, 7-((3R,5R)-1-acryloyl-5-(ethoxymethyl)pyrrolidin-3-yl)-4-amino-6-(cyclopropylethynyl)-N—((R)-1-phenylethyl)-7H-pyrrolo[2,3-d]pyrimidine-5-carboxamide] | 7.9
2 | > 10000 | > 10000 | > 10000 | > 10000 |  |  |  |  |  | CC#Cc1c(C(=O)Nc2ccc(COC)cc2)c2c(N)ncnc2n1C1(C)CC1 [Comp. Ex. 1, 4-Amino-N-(4-(methoxymethyl)phenyl)-7-(1-methylcyclopropyl)-6-(prop-1-yn-1-yl)-7H-pyrrolo[2,3-d]pyrimidine-5-carboxamide, reference compound] | 
3 | 54 | 11 | 340 | 900 |  |  |  |  |  | C=CC(=O)N1C[C@H](n2c(C#CC)c(C(=O)NCc3ccccc3C)c3c(N)ncnc32)C[C@@H]1C [Comp. Ex. 4, 7-((3R,5S)-1-acryloyl-5-methylpyrrolidin-3-yl)-4-amino-N-(2-methylbenzyl)-6-(prop-1-yn-1-yl)-7H-pyrrolo[2,3-d]pyrimidine-5-carboxamide] | 
4 | 4.6 | 0.42 | 7 | 40 | 34 |  |  |  |  | C=CC(=O)N1C[C@H](n2c(C#CC(C)C)c(C(=O)NC(C)(C)c3ccccc3F)c3c(N)ncnc32)C[C@@H]1C [Example 15, 7-((3R,5S)-1-acryloyl-5-methylpyrrolidin-3-yl)-4-amino-N-(2-(2-fluorophenyl)propan-2-yl)-6-(3-methylbut-1-yn-1-yl)-7H-pyrrolo[2,3-d]pyrimidine-5-carboxamide] | 11.6
5 | 390 | > 10000 | 3000 | 4100 |  |  |  |  |  | CC#Cc1c(C(=O)N[C@H](C)c2ccccc2)c2c(N)ncnc2n1[C@@H]1C[C@H](C)N(C(=O)/C=C/C)C1 [Comp. Ex. 6, 4-Amino-7-((3R,5S)-1-((E)-but-2-enoyl)-5-methylpyrrolidin-3-yl)-N—((R)-1-phenylethyl)-6-(prop-1-yn-1-yl)-7H-pyrrolo[2,3-d]pyrimidine-5-carboxamide] | 
6 | 19 | 4.4 | 25 | 1900 | 1.5 | more than 4 times | more than 80 times | 0.005 | 1600 | C=CC(=O)N1C[C@H](n2nc(C(=O)Nc3ccc(CC(=O)N(C)C)c(C)c3C)c3c(N)ncnc32)C[C@@H]1C [Comp. Ex. 2, 1-((3R,5S)-1-acryloyl-5-methylpyrrolidin-3-yl)-4-amino-N-(4-(2-(dimethylamino)-2-oxoethyl)-2,3-dimethylphenyl)-1H-pyrazolo[3,4-d]pyrimidine-3-carboxamide, reference compound] | 
7 | 630 | 380 | 4300 | 3400 |  |  |  |  |  | C=CC(=O)N1C[C@H](n2c(C#CC)c(C(=O)NCC3CCCCC3)c3c(N)ncnc32)C[C@@H]1C [Comp. Ex. 3, 7-((3R,5S)-1-acryloyl-5-methylpyrrolidin-3-yl)-4-amino-N-(cyclohexylmethyl)-6-(prop-1-yn-1-yl)-7H-pyrrolo[2,3-d]pyrimidine-5-carboxamide] | 
8 | 130 | 14 | 400 | 1300 |  |  |  |  |  | C=CC(=O)N1C[C@H](n2c(C#CC)c(C(=O)N(C)[C@H](C)c3ccccc3)c3c(N)ncnc32)C[C@@H]1C [Comp. Ex. 5, 7-((3R,5S)-1-acryloyl-5-methylpyrrolidin-3-yl)-4-amino-N-methyl-N—((R)-1-phenylethyl)-6-(prop-1-yn-1-yl)-7H-pyrrolo[2,3-d]pyrimidine-5-carboxamide] | 
